Reference: patent US8247211B2, “Glycopeptide antibiotics” (American Cyanamid Company, priority 2001, dated 2012)

What was measured:
[1] = test system: Staphylococcus aureus-SMITH (GC 4543); test: Acute lethal infection in mice (ED50); type: in vivo; details: female CD-1 mice, intraperitoneal challenge, intravenous dose 30 min. after infection, 7 day survival ratios
Procedure, shortened: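 Female CD-1 mice challenged intraperitoneally with a bacterial dose lethal to untreated controls within 24-48 h. Compound given intravenously in saline or 5% dextrose 30 min post-infection, five mice per dose; ED50 from 7-day survival pooled over 3 tests.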

Escherichia coli = test: In vitro antibacterial evaluation: minimum inhibitory concentration (MIC), broth dilution method; type: cell-based
Procedure, shortened: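 Following NCCLS approved standard M7-A2, compounds are serially diluted from 64 to 0.06 μg/mL in Muller-Hinton II […] and inoculated at 5×10^5 CFU/mL; the MIC is the minimum concentration at which growth is inhibited.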

Staphylococcus sp. = test: as above; type: cell-based
Procedure, shortened: (§1)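 Inoculum: 5×10^5 CFU/mL. Range: 64-0.06 μg/mL. Medium: Muller-Hinton II […]; NCCLS M7-A2 broth dilution. Endpoint: lowest concentration inhibiting growth. Strains include methicillin-, penicillin- and/or vancomycin-resistant clinical isolates.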

Streptococcus sp. = test: as above; type: cell-based
Procedure, shortened: as §1

Enterococcus sp. = test: as above; type: cell-based
Procedure, shortened: as §1

[2] = 5×10^5 CFU/mL, 18 hours at 35° C.
[3] = strain ATCC 29213, broth dilution, 18 hours at 35° C.
[4] = strain GC 1131, broth dilution, 18 hours at 35° C.
[5] = strain GC 3051, broth dilution, 18 hours at 35° C.
[6] = strain GC 3053, broth dilution, 18 hours at 35° C.
[7] = strain GC 4541, broth dilution, 18 hours at 35° C.
[8] = strain GC 4542, broth dilution, 18 hours at 35° C.
[9] = strain GC 4543, broth dilution, 18 hours at 35° C.
[10] = strain GC 4544, broth dilution, 18 hours at 35° C.
[11] = strain GC 4545, broth dilution, 18 hours at 35° C.
[12] = strain GC 4546, broth dilution, 18 hours at 35° C.
[13] = strain GC 4547, broth dilution, 18 hours at 35° C.
[14] = strain GC 4548, broth dilution, 18 hours at 35° C.
[15] = strain GC 4549, broth dilution, 18 hours at 35° C.
[16] = strain GC 4551, broth dilution, 18 hours at 35° C.
[17] = strain GC 6257, broth dilution, 18 hours at 35° C.
[18] = broth dilution, 5×10^5 CFU/mL, 18 hours at 35° C.

CC(c1ccccc1)C1NC(=O)CNC(=O)C(CO)NC(=O)C(C(O)C2CNC(=N)N2C2OC(CO)C(O)C(O)C2O)NC(=O)C(C(O)C2CNC(=N)N2)NC(=O)C(Cc2ccc(OC3OC(CO)C(OC4OC5COC(Cc6ccc(Cl)cc6)OC5C(O)C4O)C(O)C3O)cc2)NC1=O (stereo not drawn) [Example 120, Cyclo[glycyl-β-methylphenylalanyl-O-[4-O-[4,6-O-(4-chlorophenethylidene)hexopyranosyl]-hexopyranosyl]tyrosyl-3-(2-iminoimidazolidin-4-yl)seryl-3-(3-hexopyranosyl-2-iminoimidazolidin-4-yl)serylseryl]]
16 µg/mL: MIC Escherichia coli (ATCC 25922) (Escherichia coli; [2]) | MIC Escherichia coli (GC 4559) (Escherichia coli; [2])
1 µg/mL: MIC Staphylococcus aureus (GC 3053) (Staphylococcus sp.; strain GC 3053) | MIC Staphylococcus aureus (GC 3053) (Staphylococcus sp.; [6]) | MIC Coagulase Negative Staphylococcus (GC 4547) (Staphylococcus sp.; strain GC 4547) | MIC Coagulase Negative Staphylococcus (GC 4547) (Staphylococcus sp.; [13]) | MIC Enterococccus avium (GC 4558) (Enterococcus sp.; [18]) | MIC Enterococccus faecalis (ATCC 29212) (Enterococcus sp.; [18]) | MIC Enterococccus faecalis (GC 2691) (Enterococcus sp.; [18]) | MIC Enterococccus faecalis (GC 3059) (Enterococcus sp.; [18]) | MIC Enterococccus faecalis (GC 4552) (Enterococcus sp.; [18]) | MIC Enterococccus faecalis (GC 4553) (Enterococcus sp.; [18]) | MIC Enterococccus faecalis (GC 4554) (Enterococcus sp.; [18]) | MIC Enterococccus faecalis (GC 6189) (Enterococcus sp.; [18]) | MIC Enterococccus faecium (GC 2243) (Enterococcus sp.; [18]) | MIC Enterococccus faecium (GC 4556) (Enterococcus sp.; [18]) | MIC Enterococccus faecium (GC 4557) (Enterococcus sp.; [18]) | MIC Enterococcus faecalis (GC 2242) (Enterococcus sp.; [18])
0.06 mg/kg: median effective dose (ED50), Staphylococcus aureus-SMITH (GC 4543) [1]
<0.5 µg/mL: MIC Escherichia coli (GC 4560) (Escherichia coli; [2]) | MIC Staphylococcus aureus (ATCC 29213) (Staphylococcus sp.; strain ATCC 29213) | MIC Staphylococcus aureus (ATCC 29213) (Staphylococcus sp.; [3]) | MIC Staphylococcus aureus (GC 1131) (Staphylococcus sp.; strain GC 1131) | MIC Staphylococcus aureus (GC 1131) (Staphylococcus sp.; [4]) | MIC Staphylococcus aureus (GC 3051) (Staphylococcus sp.; strain GC 3051) | MIC Staphylococcus aureus (GC 3051) (Staphylococcus sp.; [5]) | MIC Staphylococcus aureus (GC 4541) (Staphylococcus sp.; strain GC 4541) | MIC Staphylococcus aureus (GC 4541) (Staphylococcus sp.; [7]) | MIC Staphylococcus aureus (GC 4542) (Staphylococcus sp.; strain GC 4542) | MIC Staphylococcus aureus (GC 4542) (Staphylococcus sp.; [8]) | MIC Staphylococcus aureus-SMITH (GC 4543) (Staphylococcus sp.; strain GC 4543, 18 hours at 35° C.) | MIC Staphylococcus aureus-SMITH (GC 4543) (Staphylococcus sp.; [9]) | MIC Staphylococcus aureus (GC 4544) (Staphylococcus sp.; strain GC 4544) | MIC Staphylococcus aureus (GC 4544) (Staphylococcus sp.; [10]) | MIC Staphylococcus aureus (GC 4545) (Staphylococcus sp.; strain GC 4545) | MIC Staphylococcus aureus (GC 4545) (Staphylococcus sp.; [11]) | MIC Staphylococcus haemolyticus (GC 4546) (Staphylococcus sp.; strain GC 4546) | MIC Staphylococcus haemolyticus (GC 4546) (Staphylococcus sp.; [12]) | MIC Coagulase Negative Staphylococcus (GC 4548) (Staphylococcus sp.; strain GC 4548) | MIC Coagulase Negative Staphylococcus (GC 4548) (Staphylococcus sp.; [14]) | MIC Coagulase Negative Staphylococcus (GC 4549) (Staphylococcus sp.; strain GC 4549) | MIC Coagulase Negative Staphylococcus (GC 4549) (Staphylococcus sp.; [15]) | MIC Coagulase Negative Staphylococcus (GC 4551) (Staphylococcus sp.; strain GC 4551) | MIC Coagulase Negative Staphylococcus (GC 4551) (Staphylococcus sp.; [16]) | MIC Coagulase Negative Staphylococcus (GC 6257) (Staphylococcus sp.; strain GC 6257) | MIC Coagulase Negative Staphylococcus (GC 6257) (Staphylococcus sp.; [17]) | MIC Streptococcus agalactiae (GC 4564) (Streptococcus sp.; [18]) | MIC Streptococcus pneumoniae (GC 1894) (Streptococcus sp.; [18]) | MIC Streptococcus pneumoniae (GC 4565) (Streptococcus sp.; [18]) | MIC Streptococcus pneumonine (ATCC 6301) (Streptococcus sp.; [18]) | MIC Streptococcus pyogenes (GC 4563) (Streptococcus sp.; [18])

CC(c1ccccc1)C1NC(=O)CNC(=O)C(CO)NC(=O)C(C(O)C2CNC(=N)N2C2OC(CO)C(O)C(O)C2O)NC(=O)C(C(O)C2CNC(=N)N2)NC(=O)C(Cc2ccc(OC3OC(CO)C(OC4OC5COC(c6ccc7c(c6)OCO7)OC5C(O)C4O)C(O)C3O)cc2)NC1=O (stereo not drawn) [Example 143, Cyclo[glycyl-β-methylphenylalanyl-O-[4-O-[4,6-O-(1,3-benzodioxol-5-ylmethylene)hexopyranosyl]hexopyranosyl]tyrosyl-3-(2-iminoimidazolidin-4-yl)seryl-3-(3-hexopyranosyl-2-iminoimidazolidin-4-yl)serylseryl]]
8 µg/mL: MIC Enterococcus faecalis (GC 2691) (Enterococcus sp.; strain GC 2691)
64 µg/mL: MIC Escherichia coli (GC 4559) (Escherichia coli; strain GC 4559)
0.5 to 1 µg/mL: MIC Streptococcus agalactiae (GC 4564) (Streptococcus sp.; strain GC 4564)
4 to 8 µg/mL: MIC Staphylococcus aureus (GC 3053) (Staphylococcus sp.; [18]) | MIC Staphylococcus aureus (GC 3053) (Staphylococcus sp.; [6])
>64 µg/mL: MIC Escherichia coli (ATCC 25922) (Escherichia coli; strain ATCC 25922)
0.5 to 2 µg/mL: MIC Staphylococcus haemolyticus (GC 4546) (Staphylococcus sp.; [18]) | MIC Staphylococcus haemolyticus (GC 4546) (Staphylococcus sp.; [12])
1 to 4 µg/mL: MIC Staphylococcus aureus (GC 4542) (Staphylococcus sp.; [18]) | MIC Staphylococcus aureus (GC 4542) (Staphylococcus sp.; [8])
0.28 mg/kg: median effective dose (ED50), Staphylococcus aureus-SMITH (GC 4543) [1]
1 µg/mL: MIC Coagulase Negative Staphylococcus (GC 4549) (Staphylococcus sp.; [18]) | MIC Coagulase Negative Staphylococcus (GC 4549) (Staphylococcus sp.; [15])
2 to 4 µg/mL: MIC Coagulase Negative Staphylococcus (GC 4551) (Staphylococcus sp.; [18]) | MIC Staphylococcus aureus (ATCC 29213) (Staphylococcus sp.; [18]) | MIC Staphylococcus aureus (GC 1131) (Staphylococcus sp.; [18]) | MIC Staphylococcus aureus (GC 3051) (Staphylococcus sp.; [18]) | MIC Staphylococcus aureus (GC 4541) (Staphylococcus sp.; [18]) | MIC Staphylococcus aureus (GC 4545) (Staphylococcus sp.; [18]) | MIC Staphylococcus aureus-SMITH (GC 4543) (Staphylococcus sp.; [18]) | MIC Staphylococcus aureus (ATCC 29213) (Staphylococcus sp.; [3]) | MIC Staphylococcus aureus (GC 1131) (Staphylococcus sp.; [4]) | MIC Staphylococcus aureus (GC 3051) (Staphylococcus sp.; [5]) | MIC Staphylococcus aureus (GC 4541) (Staphylococcus sp.; [7]) | MIC Staphylococcus aureus-SMITH (GC 4543) (Staphylococcus sp.; [9]) | MIC Staphylococcus aureus (GC 4545) (Staphylococcus sp.; [11]) | MIC Coagulase Negative Staphylococcus (GC 4551) (Staphylococcus sp.; [16])
2 to 8 µg/mL: MIC Staphylococcus aureus (GC 4544) (Staphylococcus sp.; [18]) | MIC Staphylococcus aureus (GC 4544) (Staphylococcus sp.; [10]) | MIC Enterococcus faecium (GC 4557) (Enterococcus sp.; strain GC 4557)
1 to 2 µg/mL: MIC Escherichi coli (GC 4560) (Escherichia coli; strain GC 4560) | MIC Coagulase Negative Staphylococcus (GC 4547) (Staphylococcus sp.; [18]) | MIC Coagulase Negative Staphylococcus (GC 4548) (Staphylococcus sp.; [18]) | MIC Coagulase Negative Staphylococcus (GC 6257) (Staphylococcus sp.; [18]) | MIC Coagulase Negative Staphylococcus (GC 4547) (Staphylococcus sp.; [13]) | MIC Coagulase Negative Staphylococcus (GC 4548) (Staphylococcus sp.; [14]) | MIC Coagulase Negative Staphylococcus (GC 6257) (Staphylococcus sp.; [17])
